Source: ChEMBL document CHEMBL1687791, “Identification and characterization of four azole-resistant erg3 mutants of Candida albicans” (2010)
Values after ≈ are worked out from the molar mass of the structure shown.

Legend:
Assay type in all cases: functional
[1] = tested on: Candida albicans; test: Antifungal activity against Candida albicans isolate 6 by broth microdilution method
[2] = tested on: Candida albicans; test: Antifungal activity against Candida albicans isolate 14 by broth microdilution method
[3] = tested on: Candida albicans; test: Antifungal activity against Candida albicans isolate 177 by broth dilution method
[4] = tested on: Candida albicans; test: Antifungal activity against Candida albicans isolate 12 harboring ERG3 W332R mutant gene by broth microdilution method
[5] = tested on: Candida albicans; test: Antifungal activity against Candida albicans isolate 488 harboring ERG3 H243N, T330A, A351V and ERG11 D225G, E266D, E391G, V488I mutant genes by broth microdilution method
[6] = tested on: Candida albicans; test: Antifungal activity against Candida albicans isolate 490 harboring ERG3 D147G, T330A, A351V and ERG11 F72S, T229A, E266D, N440S, V488I, R523G mutant genes by broth microdilution method
[7] = tested on: Candida albicans; test: Antifungal activity against Candida albicans isolate 1008 harboring ERG3 K97E, L193P, V237A, A351V, A353T and ERG11 E266D mutant genes by broth microdilution method
[8] = tested on: Candida albicans; test: Antifungal activity against Candida albicans isolate 6 assessed as ergosterol content in total sterol composition at 0.5 times MIC by GC-MS analysis
[9] = tested on: Candida albicans; test: Antifungal activity against Candida albicans isolate 14 assessed as ergosterol content in total sterol composition at 0.5 times MIC by GC-MS analysis
[10] = tested on: Candida albicans; test: Antifungal activity against Candida albicans isolate 177 assessed as ergosterol content in total sterol composition at 0.5 times MIC by GC-MS analysis
[11] = tested on: Candida albicans; test: Antifungal activity against Candida albicans isolate 12 harboring ERG3 W332R mutant gene assessed as ergosterol content in total sterol composition at 0.5 times MIC by GC-MS analysis
[12] = tested on: Candida albicans; test: Antifungal activity against Candida albicans isolate 488 harboring ERG3 H243N, T330A, A351V and ERG11 D225G, E266D, E391G, V488I mutant genes assessed as ergosterol content in total sterol composition at 0.5 times MIC by GC-MS analysis
[13] = tested on: Candida albicans; test: Antifungal activity against Candida albicans isolate 490 harboring ERG3 D147G, T330A, A351V and ERG11 F72S, T229A, E266D, N440S, V488I, R523G mutant genes assessed as ergosterol content in total sterol composition at 0.5 times MIC by GC-MS analysis
[14] = tested on: Candida albicans; test: Antifungal activity against Candida albicans isolate 1008 harboring ERG3 K97E, L193P, V237A, A351V, A353T and ERG11 E266D mutant genes assessed as ergosta 7,22-dienol content in total sterol composition at 0.5 times MIC by GC-MS analysis
[15] = tested on: Candida albicans; test: Antifungal activity against Candida albicans isolate 177 assessed as 14alpha-methyl fecosterol content in total sterol composition at 0.5 times MIC by GC-MS analysis
[16] = tested on: Candida albicans; test: Antifungal activity against Candida albicans isolate 12 harboring ERG3 W332R mutant gene assessed as 14alpha-methyl fecosterol content in total sterol composition at 0.5 times MIC by GC-MS analysis
[17] = tested on: Candida albicans; test: Antifungal activity against Candida albicans isolate 488 harboring ERG3 H243N, T330A, A351V and ERG11 D225G, E266D, E391G, V488I mutant genes assessed as 14alpha-methyl fecosterol content in total sterol composition at 0.5 times MIC by GC-MS analysis
[18] = tested on: Candida albicans; test: Antifungal activity against Candida albicans isolate 490 harboring ERG3 D147G, T330A, A351V and ERG11 F72S, T229A, E266D, N440S, V488I, R523G mutant genes assessed as 14alpha-methyl fecosterol content in total sterol composition at 0.5 times MIC by GC-MS analysis
[19] = tested on: Candida albicans; test: Antifungal activity against Candida albicans isolate 1008 harboring ERG3 K97E, L193P, V237A, A351V, A353T and ERG11 E266D mutant genes assessed as 14alpha-methyl fecosterol content in total sterol composition at 0.5 times MIC by GC-MS analysis
[20] = tested on: Candida albicans; test: Antifungal activity against Candida albicans isolate 6 assessed as 14alpha-methylergosta-8,24(28)-dien-3beta,6alpha-diol content in total sterol composition at 0.5 times MIC by GC-MS analysis
[21] = tested on: Candida albicans; test: Antifungal activity against Candida albicans isolate 14 assessed as 14alpha-methylergosta-8,24(28)-dien-3beta,6alpha-diol content in total sterol composition at 0.5 times MIC by GC-MS analysis
[22] = tested on: Candida albicans; test: Antifungal activity against Candida albicans isolate 177 assessed as 14alpha-methylergosta-8,24(28)-dien-3beta,6alpha-diol content in total sterol composition at 0.5 times MIC by GC-MS analysis
[23] = tested on: Candida albicans; test: Antifungal activity against Candida albicans isolate 12 harboring ERG3 W332R mutant gene assessed as 14alpha-methylergosta-8,24(28)-dien-3beta,6alpha-diol content in total sterol composition at 0.5 times MIC by GC-MS analysis
[24] = tested on: Candida albicans; test: Antifungal activity against Candida albicans isolate 490 harboring ERG3 D147G, T330A, A351V and ERG11 F72S, T229A, E266D, N440S, V488I, R523G mutant genes assessed as 14alpha-methylergosta-8,24(28)-dien-3beta,6alpha-diol content in total sterol composition at 0.5 times MIC by GC-MS analysis
[25] = tested on: Candida albicans; test: Antifungal activity against Candida albicans isolate 14 assessed as lanosterol/obtusifoliol content in total sterol composition at 0.5 times MIC by GC-MS analysis
[26] = tested on: Candida albicans; test: Antifungal activity against Candida albicans isolate 12 harboring ERG3 W332R mutant gene assessed as lanosterol/obtusifoliol content in total sterol composition at 0.5 times MIC by GC-MS analysis
[27] = tested on: Candida albicans; test: Antifungal activity against Candida albicans isolate 488 harboring ERG3 H243N, T330A, A351V and ERG11 D225G, E266D, E391G, V488I mutant genes assessed as lanosterol/obtusifoliol content in total sterol composition at 0.5 times MIC by GC-MS analysis
[28] = tested on: Candida albicans; test: Antifungal activity against Candida albicans isolate 1008 harboring ERG3 K97E, L193P, V237A, A351V, A353T and ERG11 E266D mutant genes assessed as lanosterol/obtusifoliol content in total sterol composition at 0.5 times MIC by GC-MS analysis
[29] = tested on: Candida albicans; test: Antifungal activity against Candida albicans isolate 6 assessed as eburicol content in total sterol composition at 0.5 times MIC by GC-MS analysis
[30] = tested on: Candida albicans; test: Antifungal activity against Candida albicans isolate 177 assessed as eburicol content in total sterol composition at 0.5 times MIC by GC-MS analysis
[31] = tested on: Candida albicans; test: Antifungal activity against Candida albicans isolate 12 harboring ERG3 W332R mutant gene assessed as eburicol content in total sterol composition at 0.5 times MIC by GC-MS analysis
[32] = tested on: Candida albicans; test: Antifungal activity against Candida albicans isolate 488 harboring ERG3 H243N, T330A, A351V and ERG11 D225G, E266D, E391G, V488I mutant genes assessed as eburicol content in total sterol composition at 0.5 times MIC by GC-MS analysis
[33] = tested on: Candida albicans; test: Antifungal activity against Candida albicans isolate 1008 harboring ERG3 K97E, L193P, V237A, A351V, A353T and ERG11 E266D mutant genes assessed as eburicol content in total sterol composition at 0.5 times MIC by GC-MS analysis
[34] = tested on: Candida albicans; test: Antifungal activity against Candida albicans isolate 6 by broth microdilution method in presence of 10 uM drug efflux inhibitor FK506
[35] = tested on: Candida albicans; test: Antifungal activity against Candida albicans isolate 14 by broth microdilution method in presence of 10 uM drug efflux inhibitor FK506
[36] = tested on: Candida albicans; test: Antifungal activity against Candida albicans isolate 177 by broth dilution method in presence of 10 uM drug efflux inhibitor FK506
[37] = tested on: Candida albicans; test: Antifungal activity against Candida albicans isolate 12 harboring ERG3 W332R mutant gene by broth microdilution method in presence of 10 uM drug efflux inhibitor FK506
[38] = tested on: Candida albicans; test: Antifungal activity against Candida albicans isolate 488 harboring ERG3 H243N, T330A, A351V and ERG11 D225G, E266D, E391G, V488I mutant genes by broth microdilution method in presence of 10 uM drug efflux inhibitor FK506
[39] = tested on: Candida albicans; test: Antifungal activity against Candida albicans isolate 490 harboring ERG3 D147G, T330A, A351V and ERG11 F72S, T229A, E266D, N440S, V488I, R523G mutant genes by broth microdilution method in presence of 10 uM drug efflux inhibitor FK506
[40] = tested on: Candida albicans; test: Antifungal activity against Candida albicans isolate 1008 harboring ERG3 K97E, L193P, V237A, A351V, A353T and ERG11 E266D mutant genes by broth microdilution method in presence of 10 uM drug efflux inhibitor FK506

SMILES: CC(=O)N1CCN(c2ccc(OCC3COC(Cn4ccnc4)(c4ccc(Cl)cc4Cl)O3)cc2)CC1 (centres undefined) [KETOCONAZOLE]
- MIC [1]: 16 µg/mL (≈ 30.1 µM)
- MIC [2]: 0.0625 µg/mL (≈ 0.118 µM)
- MIC [3]: 16 µg/mL (≈ 30.1 µM)
- MIC [4]: > 16 µg/mL
- MIC [5]: 8 µg/mL (≈ 15.1 µM)
- MIC [6]: 8 µg/mL (≈ 15.1 µM)
- MIC [7]: > 16 µg/mL

SMILES: C[C@@H](c1ncncc1F)[C@](O)(Cn1cncn1)c1ccc(F)cc1F [VORICONAZOLE]
- Activity [8]: 46.1%
- Activity [9]: 47.3%
- Activity [10]: 45%
- Activity [11]: 2.9%
- Activity [12]: 8%
- Activity [13]: 6.3%
- Activity [14]: 2.2%
- Activity [15]: 2.9%
- Activity [16]: 69.2%
- Activity [17]: 57.2%
- Activity [18]: 69.1%
- Activity [19]: 65.1%
- Activity [20]: 37.2%
- Activity [21]: 28.6%
- Activity [22]: 35.4%
- Activity [23]: 1.8%
- Activity [24]: 13.5%
- Activity [25]: 24.1%
- Activity [26]: 16.2%
- Activity [27]: 15.8%
- Activity [28]: 19%
- Activity [29]: 4.8%
- Activity [30]: 5%
- Activity [31]: 9.9%
- Activity [32]: 7.5%
- Activity [33]: 13.7%
- MIC [1]: 16 µg/mL (≈ 45.8 µM)
- MIC [2]: 0.0625 µg/mL (≈ 0.179 µM)
- MIC [3]: 16 µg/mL (≈ 45.8 µM)
- MIC [4]: > 16 µg/mL
- MIC [5]: > 16 µg/mL
- MIC [6]: > 16 µg/mL
- MIC [7]: > 16 µg/mL
- MIC [34]: < 0.0625 µg/mL
- MIC [35]: < 0.0625 µg/mL
- MIC [36]: < 0.0625 µg/mL
- MIC [37]: > 16 µg/mL
- MIC [38]: 0.0625 µg/mL
- MIC [39]: 0.0625 µg/mL
- MIC [40]: > 16 µg/mL

SMILES: CCC(C)n1ncn(-c2ccc(N3CCN(c4ccc(OCC5COC(Cn6cncn6)(c6ccc(Cl)cc6Cl)O5)cc4)CC3)cc2)c1=O (centres undefined) [ITRACONAZOLE]
- MIC [1]: 16 µg/mL (≈ 22.7 µM)
- MIC [2]: 0.0625 µg/mL (≈ 0.0886 µM)
- MIC [3]: 16 µg/mL (≈ 22.7 µM)
- MIC [4]: > 16 µg/mL
- MIC [5]: > 16 µg/mL
- MIC [6]: > 16 µg/mL
- MIC [7]: > 16 µg/mL
